# According to patent US20250041281A1, “METHOD OF TREATING BILIARY TRACT CANCER” (J-PHARMA CO., LTD., priority 2023, published 2025):
# Several values for one entry are separate records, joined by “and”; a condition that tells them apart may be missing. Equal values may be shown once. Entries after “also recorded” stand apart in the source; their conditions may differ.
# How the values were obtained:
# [1] = test system: advanced biliary tract cancer refractory or intolerant to standard chemotherapy; assay: Phase II randomized placebo-controlled trial, efficacy (PFS by BICR, OS, DCR); assay type: in vivo, human; parameters: disease control rate (DCR: CR+PR+SD) / Share of disease control patients with high LAT1 expression / Share of disease control patients with low LAT1 expression: concentration or dose not given beside the values
# Description: (§1) As Phase II trial of Nanvuranlat, a multicenter, randomized, placebo-controlled, double-blind, parallel-group Phase II trial was conducted at 14 centers in Japan for patients with advanced biliary tract cancer who were refractory or intolerant of standard treatment. Patients were randomized in a 2:1 ratio to receive the drug or placebo using biliary tract cancer (BTC) subtype and resection status as allocation factors. The non-rapid (Slow and/or Intermediate) genotype was set as the NAT2 genotype for selection criteria, and based on the results of the PI study conducted earlier, 25 mg/m2 of Nanvuranlat or placebo was administered intravenously for 5 consecutive days and rested for 9 days (14 days: 1 cycle). Administration of the trial drug was continued until the discontinuation criteria were met. The primary endpoint was progression-free survival using RECIST 1.1 based on Blinded Independent Central Review. Images were obtained every 6 weeks from the start date and at discontinuation. PFS was defined as the date of the first documented progressive disease (PD) or death for any reason after randomization. The primary evaluation was conducted in the full analysis set (FAS) population, which consisted of all biliary tract cancer patients randomized to one of the arms. The safety evaluation was conducted in the SAFETY population, which was randomly assigned to one of the arms and received the trial drug. Nanvuranlat was used as monohydrochloride monohydrate.
# Kaplan-Meier estimates corresponding to the event time points are calculated and plotted for each treatment group. Confidence intervals for the Kaplan-Meier estimates are constructed using the log-log method with standard errors approximated by the greenwood formula. Point estimates at the 25%, 50%, and 75% of survival time and 95% confidence intervals are obtained and presented in tabular form. The Brookmeyer and Crowley method is used to construct the confidence intervals for survival time percentiles.
# Fitting to a stratified Cox proportional hazards model, the hazard ratio exp((β_drug)Λ) and its 95% confidence interval are estimated and presented in tabular and forest plot form, along with the p-value of the Wald test corresponding to the null hypothesis “β_drug=0; exp(β_drug)=1”.
# Stratification factor 1: “Facility,” “Gall bladder cancer and other cancers,” and “Existence or nonexistence of primary tumor resection history” Stratification factor 2: “Biliary tract cancer subtype (intrahepatic biliary tract cancer, extrahepatic biliary tract cancer, […], or duodenal papillary carcinoma)” and “Existence or nonexistence of primary tumor resection history”
# This test was a multicenter, randomized, double-blind, placebo-controlled, Phase II trial conducted at 14 major cancer centers/hospitals in Japan. Patients were randomly assigned to the Nanvuranlat or placebo group (2:1), stratified by BTC subtype and whether the primary cancer lesion had been resected, generated by an independent statistical group. Randomization to the two treatment groups was performed by IWRS (Interactive Web-based Response System) and generated by an independent statistical group.
# Nanvuranlat 25 mg/m^2/day or placebo was administered intravenously for 5 consecutive days, followed by a 9-day rest period (=14 days: 1 cycle). The trial drug was administered by 90-minute infusion at the investigator's site (all patients were admitted during the first treatment cycle). Patients, drug administrators, and clinical trial coordinators were blinded to trial treatment. Nanvuranlat was used as monohydrochloride monohydrate.
# Treatment with additional cycles was to continue until disease progression, the occurrence of other unacceptable toxicities, pregnancy confirmation, death, withdrawal of consent, loss to follow-up, unblinding of the trial, or termination of the trial, as determined by the investigator. […]
# [2] = Phase II randomized placebo-controlled trial, safety (adverse events); assay type: in vivo
# Description: as §1, with “The non-rapid (Slow and/or Intermediate) genotype was set as the NAT2 genotype for selection criteria, and based on the results of the PI study conducted earlier, 25 mg/m2 of Nanvuranlat or placebo was administered intravenously for 5 consecutive days and rested for 9 days (14 days: 1 cycle).” left out
# The trial drug was administered by 90-minute infusion at the investigator's site (all patients were admitted during the first treatment cycle). Patients, drug administrators, and clinical trial coordinators were blinded to trial treatment. Nanvuranlat was used as monohydrochloride monohydrate.
# Secondary endpoint was overall survival (OS), disease control rate (DCR) as assessed by BICR, and safety. […] Blood and urinary concentrations of Nanvuranlat and its metabolite N-acetyl-JPH203 (NAc-JPH203) were evaluated.
# The primary efficacy analysis was performed using a full analysis set (FAS) population that included all randomly assigned BTC patients within their designated treatment group. The safety analysis population included all patients who received at least one trial treatment (safety population).
# Statistics were used to summarize safety data, response rates, pharmacokinetic and pharmacodynamic data. Unless otherwise specified, all reported p-values are one-sided. Statistical analysis was performed using SAS software (version 9.4).
# [3] = cited from earlier work
compound,measurement,setting,value
"Nc1cc(COc2c(Cl)cc(C[C@H](N)C(=O)O)cc2Cl)c2oc(-c3ccccc3)nc2c1 [Nanvuranlat, O-(5-amino-2-phenylbenzoxazol-7-yl)methyl-3,5-dichloro-L-tyrosine]",PFS hazard ratio (HR) by BICR vs placebo,"[1]; FAS all patients n=104, 25 mg/m2 iv 5 days, 9 days rest",0.557
same,Median PFS,"[1]; FAS, Nanvuranlat group n=69",46.0 days
same,progression-free survival rate at 1.5 months,"[1]; FAS, Nanvuranlat group n=69",53.6% and 62.3%
same,progression-free survival rate at 3 months,"[1]; FAS, Nanvuranlat group n=69",14.5% and 23.2%
same,"Overall survival HR vs placebo, LAT1 high-expressing subgroup with IHC","[1]; IHC, LAT1 high",0.35
same,"Number of patients with controlled diseases, LAT1 score 0",[1]; LAT1 score 0,1
same,"Number of patients with controlled diseases, LAT1 score 1",[1]; LAT1 score 1,2
same,"Number of patients with controlled diseases, LAT1 score 2",[1]; LAT1 score 2,0
same,"Number of patients with controlled diseases, LAT1 score 3",[1]; LAT1 score 3,0
same,"Number of patients with controlled diseases, LAT1 score 4",[1]; LAT1 score 4,2
same,"PFS HR by BICR vs placebo, LAT1 high expression subgroup","[1]; LAT1 score 4-9, n=65",0.439
same,"Number of patients with controlled diseases, LAT1 score 6",[1]; LAT1 score 6,4
same,"Number of patients with controlled diseases, LAT1 score 9",[1]; LAT1 score 9,5
same,Number of disease control patients with high LAT1,"[1]; Nanvuranlat group, LAT1 high",11
same,Number of patients with controlled diseases,"[1]; Nanvuranlat group, total",17
same,disease control rate (DCR: CR+PR+SD),"[1]; by BICR, Nanvuranlat group",24.6%
same,"PFS HR vs placebo, subgroup EHC","[1]; extrahepatic biliary tract cancer, 95% CI in brackets",0.150 (0.0437-0.5153)
same,Overall survival HR vs placebo,[1]; full population of FAS,0.849
same,"PFS HR vs placebo, subgroup GBC","[1]; gall bladder cancer, 95% CI in brackets",0.287 (0.1009-0.8183)
same,"PFS HR vs placebo, subgroup IHC","[1]; intrahepatic biliary tract cancer, 95% CI in brackets",0.872 (0.4359-1.7458)
same,Share of disease control patients with high LAT1 expression,[1]; of 17 disease control patients,64.7%
same,Share of disease control patients with low LAT1 expression,[1]; of 17 disease control patients,17.6%
same,"Overall survival HR vs placebo, high LAT1",[1]; only patients with high LAT1,0.670
same,"PFS HR vs placebo, EHC and GBC integrated",[1]; patients with GBC/EHC,0.218
same,Grade 3 or higher treatment-related adverse events,"[2]; fatigue, decreased platelet count, hypertension",three
same,"Abdominal discomfort, All grades",[2]; n = 70,2 (2.9%) n (%)
same,"At least one adverse event, All grades",[2]; n = 70,60 (85.7%) n (%)
same,"At least one adverse event, ≥ Grade 3",[2]; n = 70,21 (30.0%) n (%)
same,"Blood creatinine elevation, All grades",[2]; n = 70,1 (1.4%) n (%)
same,"Cancer pain, All grades",[2]; n = 70,6 (8.6%) n (%)
same,"Cancer pain, ≥ Grade 3",[2]; n = 70,1 (1.4%) n (%)
same,"Cholangitis, All grades",[2]; n = 70,10 (14.3%) n (%)
same,"Cholangitis, ≥ Grade 3",[2]; n = 70,9 (12.9%) n (%)
same,"Constipation, All grades",[2]; n = 70,10 (14.3%) n (%)
same,"Diarrhea, All grades",[2]; n = 70,8 (11.4%) n (%)
same,"Diarrhea, ≥ Grade 3",[2]; n = 70,1 (1.4%) n (%)
same,"Fatigue, All grades",[2]; n = 70,1 (1.4%) n (%)
same,"Fever, All grades",[2]; n = 70,9 (12.9%) n (%)
same,"High blood pressure, All grades",[2]; n = 70,5 (7.1%) n (%)
same,"High blood pressure, ≥ Grade 3",[2]; n = 70,2 (2.9%) n (%)
same,"Hypophagia, All grades",[2]; n = 70,16 (22.9%) n (%)
same,"Insomnia, All grades",[2]; n = 70,8 (11.4%) n (%)
same,"Malaise, All grades",[2]; n = 70,11 (15.7%) n (%)
same,"Malaise, ≥ Grade 3",[2]; n = 70,1 (1.4%) n (%)
same,"Nasopharyngitis, All grades",[2]; n = 70,1 (1.4%) n (%)
same,"Nausea, All grades",[2]; n = 70,9 (12.9%) n (%)
same,"Pruritus, All grades",[2]; n = 70,5 (7.1%) n (%)
same,"Rash, All grades",[2]; n = 70,2 (2.9%) n (%)
same,"Stomatitis, All grades",[2]; n = 70,4 (5.7%) n (%)
same,"Tumor pain, All grades",[2]; n = 70,1 (1.4%) n (%)
same,"Vomiting, All grades",[2]; n = 70,5 (7.1%) n (%)
same,adverse events of Grade 3 or higher,[2]; safety population n=70,30.0%
same,frequency of all adverse events,[2]; safety population n=70,85.7%
same,serious adverse events,[2]; safety population n=70,21.4%
same,treatment-related adverse events,[2]; safety population n=70,41.4%
same,discontinuations or dose reductions,[2]; trial observation period,no discontinuations or dose reductions; also recorded: Neither discontinuations nor dose reductions were considered as treatment related
same,treatment-related deaths,[2]; trial observation period,no deaths suspected to be related to Nanvuranlat; also recorded: No treatment-related deaths; also recorded: no deaths or discontinuations linked to treatment
same,maximum tolerated dose,[3]; 17 patients with solid tumors,60 mg/m^2
same,"Grade 3 hepatic dysfunction, number of patients",[3]; only in patients with the Rapid form of NAT2,two
